The source of these data is PubChem BioAssay (NCI).

Test systems include NCI/ADR-RES ovarian; HL-60(TB) leukemia; T-47D breast; MOLT-4 leukemia; OVCAR-8 ovarian; U251 CNS; IGROV1 ovarian; PC-3 prostate; UACC-62 melanoma; UO-31 renal.
Common to all, as to experiment: growth of human tumour cells (NCI), 48 h

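Growth conditions: 96-well plates. Treatment: test compound, 48 hours, 5 concentrations. Analysis: linear interpolation between bracketing concentrations; unreached endpoints set to highest concentration. GI50 is the concentration that inhibits growth by half. The concentration for full growth arrest is given as TGI.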

In the case of `C#COc1cccc(Nc2ncnc3cc(NC(=O)[C@H](C)Cl)ccc23)c1`, the GI50 with NCI/ADR-RES ovarian is 2.4 µM; in the assay with HL-60(TB) leukemia, 1.1 µM; with T-47D breast, 19.3 µM; in the assay with MOLT-4 leukemia it was 2.42 µM; in the assay with OVCAR-8 ovarian it was 4.5 µM; with U251 CNS, 2.84 µM. Also, the GI50 in the assay on IGROV1 ovarian is 2.35 µM; in the assay on PC-3 prostate, 3.23 µM; in the assay with UACC-62 melanoma, 2.96 µM; in the assay on UO-31 renal it was 7.94 µM. Moreover, the TGI in the assay on NCI/ADR-RES ovarian was above 62.5 µM; in the assay with HL-60(TB) leukemia, 3.19 µM; with T-47D breast, above 62.5 µM; in the assay on MOLT-4 leukemia, above 62.5 µM; in the assay with OVCAR-8 ovarian it was above 62.5 µM; with U251 CNS, above 62.5 µM. Moreover, the TGI with IGROV1 ovarian, in the assay with PC-3 prostate, in the assay with UACC-62 melanoma and with UO-31 renal was above 62.5 µM in each case.

Turning to `O=C(CC(=O)c1cccc(Cl)c1)c1cccc(Cl)c1`, the GI50 with NCI/ADR-RES ovarian was 2.06 µM; with HL-60(TB) leukemia, 1.99 µM; in the assay with T-47D breast it was 2.53 µM; in the assay with MOLT-4 leukemia it was 2.08 µM; in the assay with OVCAR-8 ovarian it was 2.6 µM; with U251 CNS, 1 µM. In addition, the GI50 in the assay on IGROV1 ovarian was 2.63 µM; with PC-3 prostate it was 2.41 µM; in the assay with UACC-62 melanoma, 2.82 µM; with UO-31 renal, 3.98 µM. Further, the TGI in the assay with NCI/ADR-RES ovarian is 6.35 µM; in the assay with HL-60(TB) leukemia, above 100 µM; in the assay with T-47D breast, above 100 µM; with MOLT-4 leukemia, above 100 µM; with OVCAR-8 ovarian, above 100 µM; in the assay on U251 CNS, above 100 µM. The TGI in the assay on IGROV1 ovarian, in the assay with PC-3 prostate, with UACC-62 melanoma and with UO-31 renal was above 100 µM in each case.

Consider `O=S(=O)(Nc1ccc(F)c(Cl)c1)c1ccc(-c2cnc(C3CC3)o2)cc1`, for which the GI50 was 0.252 µM with NCI/ADR-RES ovarian; 0.213 µM with HL-60(TB) leukemia; 0.361 µM with T-47D breast; 0.396 µM in the assay with MOLT-4 leukemia; 0.588 µM in the assay on OVCAR-8 ovarian; 0.438 µM with U251 CNS. The GI50 is 0.418 µM in the assay on IGROV1 ovarian, 0.322 µM in the assay with PC-3 prostate, 0.183 µM with UACC-62 melanoma and 0.584 µM in the assay on UO-31 renal. Besides, the TGI in the assay on NCI/ADR-RES ovarian came to 8.76 µM; with HL-60(TB) leukemia it was 2.16 µM; in the assay on T-47D breast it was 13.1 µM; with MOLT-4 leukemia, 88.2 µM; with OVCAR-8 ovarian it was 14.6 µM; with U251 CNS it was 13.7 µM. Further, the TGI with IGROV1 ovarian amounted to 12.3 µM; in the assay on PC-3 prostate, 12.3 µM; in the assay on UACC-62 melanoma, 5.51 µM; in the assay on UO-31 renal it was 6.37 µM.

In the case of `COc1ccc(C2C=C(c3ccc(Cl)cc3)N=C3SC=C(C)N32)c(Br)c1` (stereo not given), the GI50 in the assay with NCI/ADR-RES ovarian is 4.22 µM; in the assay with HL-60(TB) leukemia, 3.85 µM; in the assay with T-47D breast, 3.45 µM; with MOLT-4 leukemia, 4.12 µM; in the assay on OVCAR-8 ovarian it was 3.32 µM; in the assay on U251 CNS it was 3.34 µM. Besides, the GI50 was 3.62 µM in the assay with IGROV1 ovarian, 4.67 µM in the assay with PC-3 prostate, 3.8 µM in the assay on UACC-62 melanoma and 3.26 µM in the assay with UO-31 renal. Besides, the TGI in the assay with NCI/ADR-RES ovarian was above 100 µM; with HL-60(TB) leukemia, 51.5 µM; in the assay on T-47D breast, 21.5 µM; with MOLT-4 leukemia it was above 100 µM; with OVCAR-8 ovarian, 50.7 µM; in the assay on U251 CNS, 13.1 µM. Further, the TGI amounted to 20.4 µM in the assay with IGROV1 ovarian, 43.3 µM with PC-3 prostate, 15.7 µM in the assay on UACC-62 melanoma and 15.4 µM in the assay on UO-31 renal.

Take `COc1cc2c(=O)n(CCN(C)C)c3c4cc5c(cc4ccc3c2cc1OC)OCO5`: the GI50 is 0.256 µM with NCI/ADR-RES ovarian; 0.239 µM in the assay on HL-60(TB) leukemia; 0.111 µM with T-47D breast; 0.127 µM with MOLT-4 leukemia; 0.478 µM with OVCAR-8 ovarian; 0.153 µM in the assay with U251 CNS. Besides, the GI50 in the assay with IGROV1 ovarian was 0.257 µM; in the assay on PC-3 prostate, 0.338 µM; in the assay on UACC-62 melanoma it was 0.115 µM; in the assay on UO-31 renal it was 0.119 µM. For the same compound, the TGI is above 50 µM with NCI/ADR-RES ovarian; 3.74 µM in the assay on HL-60(TB) leukemia; 0.486 µM in the assay on T-47D breast; 0.648 µM with MOLT-4 leukemia; above 50 µM in the assay on OVCAR-8 ovarian; 1.92 µM with U251 CNS. Moreover, the TGI with IGROV1 ovarian was found to be 2.55 µM; in the assay with PC-3 prostate, 6.16 µM; in the assay with UACC-62 melanoma, 0.435 µM; with UO-31 renal it was 0.48 µM.

Consider `COc1cc(/C=C/c2cc(/C=C/c3ccc(O)c(OC)c3)n(C(=O)Nc3ccc(Cl)cc3)n2)ccc1O`, for which the GI50 in the assay on NCI/ADR-RES ovarian was 0.363 µM; with HL-60(TB) leukemia, 0.292 µM; in the assay with T-47D breast, 1.25 µM; in the assay with MOLT-4 leukemia, 0.374 µM; in the assay with OVCAR-8 ovarian, 0.641 µM; with U251 CNS, 0.525 µM. For the same compound, the GI50 is 0.661 µM with IGROV1 ovarian, 0.497 µM in the assay on PC-3 prostate, 0.551 µM in the assay with UACC-62 melanoma and 0.375 µM in the assay on UO-31 renal. Also, the TGI in the assay on NCI/ADR-RES ovarian worked out at 3.68 µM; in the assay with HL-60(TB) leukemia, 0.982 µM; with T-47D breast it was 4.17 µM; in the assay with MOLT-4 leukemia it was 3.47 µM; in the assay on OVCAR-8 ovarian it was 3.31 µM; in the assay with U251 CNS it was 5.33 µM. In addition, the TGI in the assay with IGROV1 ovarian is 4.66 µM; with PC-3 prostate, 5.78 µM; with UACC-62 melanoma, 2.24 µM; in the assay with UO-31 renal, 3.16 µM.
